Data: patent publication US8580794B2 (AbbVie Inc., priority 2009, dated 2013)

The molecules below were run against GST-Bc1-2 (Homo sapiens, UniProt P10415) (assay: Time Resolved-Fluorescence Resonance Energy Transfer (TR-FRET) Bcl-2 binding assay with F-Bak peptide probe). Details: GST-Bcl-2 1 nM, F-Bak probe 100 nM, Tb-anti-GST 1 nM; '<' = below limit of detection; read-out: TR-FRET Bcl-2 Binding Ki.
GST-Bc1-2, sequence (P10415 whole entry): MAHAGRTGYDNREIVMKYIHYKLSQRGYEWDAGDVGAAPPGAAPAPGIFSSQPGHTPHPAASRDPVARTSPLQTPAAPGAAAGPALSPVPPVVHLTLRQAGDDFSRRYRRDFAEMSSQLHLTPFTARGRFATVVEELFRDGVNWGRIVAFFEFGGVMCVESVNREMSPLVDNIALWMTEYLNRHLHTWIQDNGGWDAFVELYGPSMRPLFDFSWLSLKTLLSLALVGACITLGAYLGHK
For `CC1(C)CCC(CN2CCN(c3ccc(C(=O)NS(=O)(=O)c4ccc(NCC5CN(CC#N)CCO5)c([N+](=O)[O-])c4)c(Oc4cnc5[nH]ccc5c4)c3)CC2)=C(c2ccc(Cl)cc2)C1` (stereo not shown) [Example 214, 4-(4-{[2-(4-chlorophenyl)-4,4-dimethylcyclohex-1-en-1-yl]methyl}piperazin-1-yl)-N-{[4-({[4-(cyanomethyl)morpholin-2-yl]methyl}amino)-3-nitrophenyl]sulfonyl}-2-(1H-pyrrolo[2,3-b]pyridin-5-yloxy)benzamide], the Ki was < 0.01 nM. `CC1(C)CCC(CN2CCN(c3ccc(C(=O)NS(=O)(=O)c4ccc(NCC5CN(C6CC6)CCO5)c(Cl)c4)c(Oc4cnc5[nH]ccc5c4)c3)CC2)=C(c2ccc(Cl)cc2)C1` (stereo not shown) [Example 332, N-[(3-chloro-4-{[(4-cyclopropylmorpholin-2-yl)methyl]amino}phenyl)sulfonyl]-4-(4-{[2-(4-chlorophenyl)-4,4-dimethylcyclohex-1-en-1-yl]methyl}piperazin-1-yl)-2-(1H-pyrrolo[2,3-b]pyridin-5-yloxy)benzamide] gave a Ki of 0.621 nM. With `O=C(NS(=O)(=O)c1ccc(NCCCN2CCOCC2)c([N+](=O)[O-])c1)c1ccc(N2CCN(Cc3ccccc3-c3ccc(Cl)cc3)CC2)cc1Oc1cnc2[nH]ccc2c1` [Example 2, 4-{4-[(4′-chloro-1,1′-biphenyl-2-yl)methyl]piperazin-1-yl}-N-({4-[(3-morpholin-4-ylpropyl)amino]-3-nitrophenyl}sulfonyl)-2-(1H-pyrrolo[2,3-b]pyridin-5-yloxy)benzamide] the Ki was < 0.01 nM. For `CC1(C)CC(c2ccc(Cl)cc2)=C(CN2CCN(c3ccc(C(=O)NS(=O)(=O)c4ccc(N[C@H]5CC[C@H](N6CCOCC6)CC5)c(S(=O)(=O)C(F)(F)F)c4)c(Oc4cnc5[nH]ccc5c4)c3)CC2)CO1` [Example 44, Trans-4-(4-{[4-(4-chlorophenyl)-6,6-dimethyl-5,6-dihydro-2H-pyran-3-yl]methyl}piperazin-1-yl)-N-({4-[(4-morpholin-4-ylcyclohexyl)amino]-3-[(trifluoromethyl)sulfonyl]phenyl}sulfonyl)-2-(1H-pyrrolo[2,3-b]pyridin-5-yloxy)benzamide], the Ki was < 0.01 nM. `CC1(C)CCC(CN2CCN(c3ccc(C(=O)NS(=O)(=O)c4ccc(NCC56CC7CC(C5)C(O)C(C7)C6)c([N+](=O)[O-])c4)c(Oc4cnc5[nH]ccc5c4)c3)CC2)=C(c2ccc(Cl)cc2)C1` (stereo not shown) [Example 200, 4-(4-{[2-(4-chlorophenyl)-4,4-dimethylcyclohex-1-en-1-yl]methyl}piperazin-1-yl)-N-{[4-({[(Z)-4-hydroxy-1-adamantyl]methyl}amino)-3-nitrophenyl]sulfonyl}-2-(1H-pyrrolo[2,3-b]pyridin-5-yloxy)benzamide] was tested, and the Ki was < 0.01 nM. `CC1(C)C=CC(c2ccc(Cl)cc2)=C(CN2CCN(c3ccc(C(=O)NS(=O)(=O)c4ccc(NCC5CCOCC5)c([N+](=O)[O-])c4)c(Oc4cnc5[nH]ccc5c4)c3)CC2)C1` [Example 206, 4-(4-{[2-(4-chlorophenyl)-5,5-dimethylcyclohexa-1,3-dien-1-yl]methyl}piperazin-1-yl)-N-({3-nitro-4-[(tetrahydro-2H-pyran-4-ylmethyl)amino]phenyl}sulfonyl)-2-(1H-pyrrolo[2,3-b]pyridin-5-yloxy)benzamide] gave a Ki of 0.036 nM. With `CC1(C)CCC(CN2CCN(c3ccc(C(=O)NS(=O)(=O)c4cnc(OC[C@@H]5CCN(C(CF)CF)C5)c(Cl)c4)c(Oc4cnc5[nH]ccc5c4)c3)CC2)=C(c2ccc(Cl)cc2)C1` [Example 280, N-[(5-chloro-6-{[(3R)-1-(1,3-difluoropropan-2-yl)pyrrolidin-3-yl]methoxy}pyridin-3-yl)sulfonyl]-4-(4-{[2-(4-chlorophenyl)-4,4-dimethylcyclohex-1-en-1-yl]methyl}piperazin-1-yl)-2-(1H-pyrrolo[2,3-b]pyridin-5-yloxy)benzamide] the Ki was 0.071 nM. For `CC1(C)CCC(CN2CCN(c3ccc(C(=O)NS(=O)(=O)c4cnc(OCC5CCOCC5)c(Cl)c4)c(Oc4cnc5[nH]ccc5c4)c3)CC2)=C(c2ccc(Cl)cc2)C1` [Example 40, 4-(4-{[2-(4-chlorophenyl)-4,4-dimethylcyclohex-1-en-1-yl]methyl}piperazin-1-yl)-N-{[5-chloro-6-(tetrahydro-2H-pyran-4-ylmethoxy)pyridin-3-yl]sulfonyl}-2-(1H-pyrrolo[2,3-b]pyridin-5-yloxy)benzamide], the Ki was < 0.01 nM. For `CC1(C)CCC(CN2CCN(c3ccc(C(=O)NS(=O)(=O)c4ccc(NCC5(F)CCOCC5)c([N+](=O)[O-])c4)c(Oc4cnc5[nH]ccc5c4)c3)CC2)=C(c2ccc(Cl)cc2)C1` [Example 138, 4-(4-{[2-(4-chlorophenyl)-4,4-dimethylcyclohex-1-en-1-yl]methyl}piperazin-1-yl)-N-[(4-{[(4-fluorotetrahydro-2H-pyran-4-yl)methyl]amino}-3-nitrophenyl)sulfonyl]-2-(1H-pyrrolo[2,3-b]pyridin-5-yloxy)benzamide], the Ki was < 0.01 nM. Work on `CC1(C)CCC(CN2CCN(c3ccc(C(=O)NS(=O)(=O)c4cnc(OCCC5CCCO5)c(Cl)c4)c(Oc4cnc5[nH]ccc5c4)c3)CC2)=C(c2ccc(Cl)cc2)C1` (stereo not shown) [Example 289, 4-(4-{[2-(4-chlorophenyl)-4,4-dimethylcyclohex-1-en-1-yl]methyl}piperazin-1-yl)-N-({5-chloro-6-[2-(tetrahydrofuran-2-yl)ethoxy]pyridin-3-yl}sulfonyl)-2-(1H-pyrrolo[2,3-b]pyridin-5-yloxy)benzamide] yielded a Ki of 0.09 nM. In the case of `CC1(C)CCC(CN2CCN(c3ccc(C(=O)NS(=O)(=O)c4ccc(NC5CCS(=O)(=O)CC5)c([N+](=O)[O-])c4)c(Oc4cnc5[nH]ccc5c4)c3)CC2)=C(c2ccc(Cl)cc2)C1` [Example 81, 4-(4-{[2-(4-chlorophenyl)-4,4-dimethylcyclohex-1-en-1-yl]methyl}piperazin-1-yl)-N-({4-[(1,1-dioxidotetrahydro-2H-thiopyran-4-yl)amino]-3-nitrophenyl}sulfonyl)-2-(1H-pyrrolo[2,3-b]pyridin-5-yloxy)benzamide], the Ki is reported as < 0.01 nM. For `CC1(C)CCC(CN2CCN(c3ccc(C(=O)NS(=O)(=O)c4ccc(NCC5CCC(F)(F)CC5)c([N+](=O)[O-])c4)c(Oc4cnc5[nH]ccc5c4)c3)CC2)=C(c2ccc(Cl)cc2)C1` [Example 239, 4-(4-{[2-(4-chlorophenyl)-4,4-dimethylcyclohex-1-en-1-yl]methyl}piperazin-1-yl)-N-[(4-{[(4,4-difluorocyclohexyl)methyl]amino}-3-nitrophenyl)sulfonyl]-2-(1H-pyrrolo[2,3-b]pyridin-5-yloxy)benzamide], the Ki was 0.026 nM. `CC1(C)CCC(CN2CCN(c3ccc(C(=O)NS(=O)(=O)c4ccc(NCC5CN(C(CF)CF)C5)c([N+](=O)[O-])c4)c(Oc4cnc5[nH]ccc5c4)c3)CC2)=C(c2ccc(Cl)cc2)C1` [Example 161, 4-(4-{[2-(4-chlorophenyl)-4,4-dimethylcyclohex-1-en-1-yl]methyl}piperazin-1-yl)-N-({4-[({1-[2-fluoro-1-(fluoromethyl)ethyl]azetidin-3-yl}methyl)amino]-3-nitrophenyl}sulfonyl)-2-(1H-pyrrolo[2,3-b]pyridin-5-yloxy)benzamide] was tested, and the Ki was < 0.01 nM. In the case of `CC1(C)CCC(CN2CCN(c3ccc(C(=O)NS(=O)(=O)c4ccc(NCC5CN(C6CC6)CCO5)c([N+](=O)[O-])c4)c(Oc4cnc5[nH]ccc5c4)c3)CC2)=C(c2ccc(Cl)cc2)C1` (stereo not shown) [Example 218, 4-(4-{[2-(4-chlorophenyl)-4,4-dimethylcyclohex-1-en-1-yl]methyl}piperazin-1-yl)-N-[(4-{[(4-cyclopropylmorpholin-2-yl)methyl]amino}-3-nitrophenyl)sulfonyl]-2-(1H-pyrrolo[2,3-b]pyridin-5-yloxy)benzamide], the Ki is reported as 0.013 nM. In the case of `CC(C)N1CCC2(CCC(c3ccc(Cl)cc3)=C(CN3CCN(c4ccc(C(=O)NS(=O)(=O)c5cnc(OCC6CCOCC6)c(Cl)c5)c(Oc5cnc6[nH]ccc6c5)c4)CC3)C2)CC1` [Example 268, 4-(4-{[9-(4-chlorophenyl)-3-isopropyl-3-azaspiro[5.5]undec-8-en-8-yl]methyl}piperazin-1-yl)-N-{[5-chloro-6-(tetrahydro-2H-pyran-4-ylmethoxy)pyridin-3-yl]sulfonyl}-2-(1H-pyrrolo[2,3-b]pyridin-5-yloxy)benzamide], the Ki is reported as < 0.01 nM. `CC1(C)CCC(CN2CCN(c3ccc(C(=O)NS(=O)(=O)c4cnc(OCC5(F)CCN(C(CF)CF)CC5)c(Cl)c4)c(Oc4cnc5[nH]ccc5c4)c3)CC2)=C(c2ccc(Cl)cc2)C1` [Example 282, N-[(5-chloro-6-{[1-(1,3-difluoropropan-2-yl)-4-fluoropiperidin-4-yl]methoxy}pyridin-3-yl)sulfonyl]-4-(4-{[2-(4-chlorophenyl)-4,4-dimethylcyclohex-1-en-1-yl]methyl}piperazin-1-yl)-2-(1H-pyrrolo[2,3-b]pyridin-5-yloxy)benzamide] was tested, and the Ki was < 0.01 nM. `CC1(C)CC(c2ccc(Cl)cc2)=C(CN2CCN(c3ccc(C(=O)NS(=O)(=O)c4ccc(NCC5CCOCC5)c(C(F)(F)F)c4)c(Oc4cnc5[nH]ccc5c4)c3)CC2)CO1` [Example 42, 4-(4-{[4-(4-chlorophenyl)-6,6-dimethyl-5,6-dihydro-2H-pyran-3-yl]methyl}piperazin-1-yl)-2-(1H-pyrrolo[2,3-b]pyridin-5-yloxy)-N-{[4-[(tetrahydro-2H-pyran-4-ylmethyl)amino]-3-(trifluoromethyl)phenyl]sulfonyl}benzamide] showed a Ki of 0.439 nM. For `O=C(NS(=O)(=O)c1ccc(NCC2CCOCC2)c([N+](=O)[O-])c1)c1ccc(N2CCN(CC3=C(c4ccc(Cl)cc4)CC4(CC3)CC4)CC2)cc1Oc1cnc2[nH]ccc2c1` [Example 328, 4-(4-{[5-(4-chlorophenyl)spiro[2.5]oct-5-en-6-yl]methyl}piperazin-1-yl)-N-({3-nitro-4-[(tetrahydro-2H-pyran-4-ylmethyl)amino]phenyl}sulfonyl)-2-(1H-pyrrolo[2,3-b]pyridin-5-yloxy)benzamide], the Ki was < 0.01 nM.

Same assay, conditions: Table 5, direct comparison Z=N vs Z=C analogs; read-out: Bcl-2 FRET ki
`O=C(NS(=O)(=O)c1ccc(NCCCN2CCOCC2)c([N+](=O)[O-])c1)c1ccc(N2CCN(Cc3ccccc3-c3ccc(Cl)cc3)CC2)cc1Oc1cnc2[nH]ccc2c1` [Example 2, 4-{4-[(4′-chloro-1,1′-biphenyl-2-yl)methyl]piperazin-1-yl}-N-({4-[(3-morpholin-4-ylpropyl)amino]-3-nitrophenyl}sulfonyl)-2-(1H-pyrrolo[2,3-b]pyridin-5-yloxy)benzamide] was tested, and the Ki was < 0.01 nM.
